Measurements: ChEMBL document CHEMBL4507319 (2021)
Activity calls are given as the source filed them. The calls are words filed in the database; no cut-off is given here.

Key:
OCI-Ly7 = assay: Oci-Ly-7 cell line Proliferation assay; format: functional, Homo sapiens; conditions: time 3 day
[1] = target: 5'-AMP-activated protein kinase catalytic subunit alpha-1 (Homo sapiens, UniProt Q13131); assay: Eurofins kinase panel (PRKAA1); parameters: compound concentration 1 uM
[2] = target: Serine/threonine-protein kinase WNK3 (Homo sapiens) (UniProt Q9BYP7); assay: WNK3(h) Eurofins kinase panel; conditions: Compound concentration 1.0 uM
[3] = target: Serine/threonine-protein kinase A-Raf (Homo sapiens) (UniProt P10398); assay: A-Raf(h) Eurofins kinase panel; conditions: Compound concentration 1.0 uM
[4] = target: Fibroblast growth factor receptor 2 (Homo sapiens) (UniProt P21802); assay: FGFR2(h) Eurofins kinase panel; conditions: Compound concentration 1.0 uM
[5] = target: D(1A) dopamine receptor (Homo sapiens) (UniProt P21728); conditions: Compound concentration 10.0 uM
[6] = target: T1, Serine/threonine-protein kinase NLK (Homo sapiens) (UniProt Q9UBE8); assay: NLK(h) Eurofins kinase panel; conditions: Compound concentration 1.0 uM
T1 sequence (whole entry): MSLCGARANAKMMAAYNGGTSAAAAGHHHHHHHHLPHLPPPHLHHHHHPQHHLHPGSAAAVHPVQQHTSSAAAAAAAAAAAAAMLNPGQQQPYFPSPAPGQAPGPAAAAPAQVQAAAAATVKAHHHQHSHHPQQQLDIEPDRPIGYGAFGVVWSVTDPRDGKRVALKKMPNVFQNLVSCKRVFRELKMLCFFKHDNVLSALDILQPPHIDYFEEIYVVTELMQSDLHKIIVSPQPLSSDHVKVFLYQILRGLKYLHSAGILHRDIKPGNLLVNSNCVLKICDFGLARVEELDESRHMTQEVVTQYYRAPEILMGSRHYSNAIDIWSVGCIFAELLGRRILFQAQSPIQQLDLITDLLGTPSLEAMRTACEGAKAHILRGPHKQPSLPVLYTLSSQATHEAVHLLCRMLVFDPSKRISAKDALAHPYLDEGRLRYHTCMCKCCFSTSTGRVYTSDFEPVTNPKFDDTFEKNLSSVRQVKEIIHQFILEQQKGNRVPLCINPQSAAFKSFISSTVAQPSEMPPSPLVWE

[7] = target: Tyrosine-protein kinase Yes (Homo sapiens) (UniProt P07947); assay: Yes(h) Eurofins kinase panel; conditions: Compound concentration 1.0 uM
[8] = target: Serine/threonine-protein kinase 10 (Homo sapiens) (UniProt O94804); assay: LOK(h) Eurofins kinase panel; conditions: Compound concentration 1.0 uM
[9] = target: Wee1-like protein kinase 2 (Homo sapiens) (UniProt P0C1S8); assay: Wee1B(h) Eurofins kinase panel; conditions: Compound concentration 1.0 uM
DU-145 = assay: DU-145 cell line Proliferation assay; format: functional, Homo sapiens; conditions: time 6 day
[10] = target: Calcium/calmodulin-dependent protein kinase type II subunit beta (Homo sapiens) (UniProt Q13554); assay: CaMKIIbeta(h) Eurofins kinase panel; conditions: Compound concentration 1.0 uM
[11] = target: T2, Tyrosine-protein kinase Tec (Homo sapiens) (UniProt P42680); assay: Tec(h) activated Eurofins kinase panel; conditions: Compound concentration 1.0 uM
T2 sequence (whole entry): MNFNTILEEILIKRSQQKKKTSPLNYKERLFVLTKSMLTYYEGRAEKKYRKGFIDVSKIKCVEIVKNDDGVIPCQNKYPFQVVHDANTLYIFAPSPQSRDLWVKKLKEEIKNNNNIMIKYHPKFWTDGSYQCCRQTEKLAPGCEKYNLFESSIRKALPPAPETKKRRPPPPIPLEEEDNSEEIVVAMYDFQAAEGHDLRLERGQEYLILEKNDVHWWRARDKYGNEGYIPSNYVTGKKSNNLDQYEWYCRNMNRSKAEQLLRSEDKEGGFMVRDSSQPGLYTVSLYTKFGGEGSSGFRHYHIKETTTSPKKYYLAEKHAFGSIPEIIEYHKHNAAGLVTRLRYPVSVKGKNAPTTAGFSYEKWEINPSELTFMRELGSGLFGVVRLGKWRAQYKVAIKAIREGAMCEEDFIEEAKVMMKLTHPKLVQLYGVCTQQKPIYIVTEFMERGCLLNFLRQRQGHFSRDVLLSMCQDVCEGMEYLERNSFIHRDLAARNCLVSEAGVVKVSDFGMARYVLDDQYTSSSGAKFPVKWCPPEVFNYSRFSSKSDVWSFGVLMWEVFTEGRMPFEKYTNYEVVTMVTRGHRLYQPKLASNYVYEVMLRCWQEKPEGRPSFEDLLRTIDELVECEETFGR

A-375 = assay: A375 cell line Proliferation assay; format: functional, Homo sapiens; conditions: time 3 day
[12] = target: Insulin-like growth factor 1 receptor (Homo sapiens) (UniProt P08069); assay: IGF-1R(h), activated Eurofins kinase panel; conditions: Compound concentration 1.0 uM
[13] = target: T3, Serine/threonine-protein kinase 17B (Homo sapiens) (UniProt O94768); assay: DRAK2(h) Eurofins kinase panel; conditions: Compound concentration 1.0 uM
T3 sequence (whole entry): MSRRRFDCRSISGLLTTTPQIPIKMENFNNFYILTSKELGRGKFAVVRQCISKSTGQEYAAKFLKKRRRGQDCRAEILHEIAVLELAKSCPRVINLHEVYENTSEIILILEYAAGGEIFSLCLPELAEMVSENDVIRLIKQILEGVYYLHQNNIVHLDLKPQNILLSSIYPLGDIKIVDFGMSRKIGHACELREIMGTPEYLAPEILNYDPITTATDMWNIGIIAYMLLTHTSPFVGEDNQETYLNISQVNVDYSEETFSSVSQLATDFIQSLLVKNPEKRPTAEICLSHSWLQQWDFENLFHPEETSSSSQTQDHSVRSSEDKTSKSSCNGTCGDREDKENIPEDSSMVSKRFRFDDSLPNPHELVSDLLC

[14] = target: Cyclin-dependent kinase-like 1 (Homo sapiens) (UniProt Q00532); assay: CDKL1(h) Eurofins kinase panel; conditions: Compound concentration 1.0 uM
[15] = target: Serine/threonine-protein kinase MRCK beta (Homo sapiens) (UniProt Q9Y5S2); assay: MRCKbeta(h) Eurofins kinase panel; conditions: Compound concentration 1.0 uM
[16] = target: Protein-tyrosine kinase 6 (Homo sapiens) (UniProt Q13882); assay: BRK(h) Eurofins kinase panel; conditions: Compound concentration 1.0 uM
[17] = target: Mitogen-activated protein kinase kinase kinase 20 (Homo sapiens) (UniProt Q9NYL2); assay: ZAK(h) Eurofins kinase panel; conditions: Compound concentration 1.0 uM
[18] = target: Serine/threonine-protein kinase 35 (Homo sapiens) (UniProt Q8TDR2); assay: CLIK1(h) Eurofins kinase panel; conditions: Compound concentration 1.0 uM
Sequence of Serine/threonine-protein kinase 35 (Homo sapiens) (Q8TDR2 whole entry): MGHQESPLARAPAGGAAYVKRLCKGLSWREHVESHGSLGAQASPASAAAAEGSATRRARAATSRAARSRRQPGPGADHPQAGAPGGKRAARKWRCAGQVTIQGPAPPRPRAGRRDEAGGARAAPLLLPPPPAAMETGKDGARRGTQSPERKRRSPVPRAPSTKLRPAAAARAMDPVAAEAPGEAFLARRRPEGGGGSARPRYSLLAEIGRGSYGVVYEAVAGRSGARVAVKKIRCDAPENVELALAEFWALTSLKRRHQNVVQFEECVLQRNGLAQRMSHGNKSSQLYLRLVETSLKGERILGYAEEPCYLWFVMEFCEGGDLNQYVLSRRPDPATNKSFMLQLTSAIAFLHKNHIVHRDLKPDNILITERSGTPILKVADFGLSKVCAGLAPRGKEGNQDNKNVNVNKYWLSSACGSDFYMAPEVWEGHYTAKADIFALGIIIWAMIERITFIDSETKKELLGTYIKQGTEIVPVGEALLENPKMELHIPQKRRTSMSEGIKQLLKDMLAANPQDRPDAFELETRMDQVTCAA

Sequence of Cyclin-dependent kinase-like 1 (Homo sapiens) (Q00532 whole entry): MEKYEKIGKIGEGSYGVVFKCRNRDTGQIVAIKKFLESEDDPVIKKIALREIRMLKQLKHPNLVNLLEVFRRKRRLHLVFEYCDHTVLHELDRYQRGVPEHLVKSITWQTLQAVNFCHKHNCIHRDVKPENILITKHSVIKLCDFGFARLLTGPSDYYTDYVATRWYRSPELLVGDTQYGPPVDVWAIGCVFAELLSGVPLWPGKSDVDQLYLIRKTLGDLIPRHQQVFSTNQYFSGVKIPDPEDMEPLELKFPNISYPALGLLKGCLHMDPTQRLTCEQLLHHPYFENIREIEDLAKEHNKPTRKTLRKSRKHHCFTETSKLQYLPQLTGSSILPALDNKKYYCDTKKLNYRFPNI
Sequence of Serine/threonine-protein kinase A-Raf (Homo sapiens) (P10398 whole entry): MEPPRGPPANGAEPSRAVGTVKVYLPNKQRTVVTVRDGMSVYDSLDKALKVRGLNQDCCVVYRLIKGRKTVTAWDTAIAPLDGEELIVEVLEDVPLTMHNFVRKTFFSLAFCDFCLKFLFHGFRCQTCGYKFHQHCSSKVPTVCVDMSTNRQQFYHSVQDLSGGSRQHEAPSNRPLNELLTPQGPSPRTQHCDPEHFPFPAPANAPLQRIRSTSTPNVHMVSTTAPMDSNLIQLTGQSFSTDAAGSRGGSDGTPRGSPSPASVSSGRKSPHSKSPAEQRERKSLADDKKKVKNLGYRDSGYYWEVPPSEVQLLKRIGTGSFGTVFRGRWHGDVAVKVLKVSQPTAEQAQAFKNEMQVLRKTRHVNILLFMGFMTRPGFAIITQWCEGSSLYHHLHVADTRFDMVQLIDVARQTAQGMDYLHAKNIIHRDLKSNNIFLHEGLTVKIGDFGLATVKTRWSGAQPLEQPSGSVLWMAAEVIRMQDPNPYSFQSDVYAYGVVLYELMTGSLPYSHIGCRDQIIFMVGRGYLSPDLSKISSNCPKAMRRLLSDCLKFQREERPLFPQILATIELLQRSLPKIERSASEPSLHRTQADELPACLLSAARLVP
Sequence of Serine/threonine-protein kinase MRCK beta (Homo sapiens) (Q9Y5S2 whole entry): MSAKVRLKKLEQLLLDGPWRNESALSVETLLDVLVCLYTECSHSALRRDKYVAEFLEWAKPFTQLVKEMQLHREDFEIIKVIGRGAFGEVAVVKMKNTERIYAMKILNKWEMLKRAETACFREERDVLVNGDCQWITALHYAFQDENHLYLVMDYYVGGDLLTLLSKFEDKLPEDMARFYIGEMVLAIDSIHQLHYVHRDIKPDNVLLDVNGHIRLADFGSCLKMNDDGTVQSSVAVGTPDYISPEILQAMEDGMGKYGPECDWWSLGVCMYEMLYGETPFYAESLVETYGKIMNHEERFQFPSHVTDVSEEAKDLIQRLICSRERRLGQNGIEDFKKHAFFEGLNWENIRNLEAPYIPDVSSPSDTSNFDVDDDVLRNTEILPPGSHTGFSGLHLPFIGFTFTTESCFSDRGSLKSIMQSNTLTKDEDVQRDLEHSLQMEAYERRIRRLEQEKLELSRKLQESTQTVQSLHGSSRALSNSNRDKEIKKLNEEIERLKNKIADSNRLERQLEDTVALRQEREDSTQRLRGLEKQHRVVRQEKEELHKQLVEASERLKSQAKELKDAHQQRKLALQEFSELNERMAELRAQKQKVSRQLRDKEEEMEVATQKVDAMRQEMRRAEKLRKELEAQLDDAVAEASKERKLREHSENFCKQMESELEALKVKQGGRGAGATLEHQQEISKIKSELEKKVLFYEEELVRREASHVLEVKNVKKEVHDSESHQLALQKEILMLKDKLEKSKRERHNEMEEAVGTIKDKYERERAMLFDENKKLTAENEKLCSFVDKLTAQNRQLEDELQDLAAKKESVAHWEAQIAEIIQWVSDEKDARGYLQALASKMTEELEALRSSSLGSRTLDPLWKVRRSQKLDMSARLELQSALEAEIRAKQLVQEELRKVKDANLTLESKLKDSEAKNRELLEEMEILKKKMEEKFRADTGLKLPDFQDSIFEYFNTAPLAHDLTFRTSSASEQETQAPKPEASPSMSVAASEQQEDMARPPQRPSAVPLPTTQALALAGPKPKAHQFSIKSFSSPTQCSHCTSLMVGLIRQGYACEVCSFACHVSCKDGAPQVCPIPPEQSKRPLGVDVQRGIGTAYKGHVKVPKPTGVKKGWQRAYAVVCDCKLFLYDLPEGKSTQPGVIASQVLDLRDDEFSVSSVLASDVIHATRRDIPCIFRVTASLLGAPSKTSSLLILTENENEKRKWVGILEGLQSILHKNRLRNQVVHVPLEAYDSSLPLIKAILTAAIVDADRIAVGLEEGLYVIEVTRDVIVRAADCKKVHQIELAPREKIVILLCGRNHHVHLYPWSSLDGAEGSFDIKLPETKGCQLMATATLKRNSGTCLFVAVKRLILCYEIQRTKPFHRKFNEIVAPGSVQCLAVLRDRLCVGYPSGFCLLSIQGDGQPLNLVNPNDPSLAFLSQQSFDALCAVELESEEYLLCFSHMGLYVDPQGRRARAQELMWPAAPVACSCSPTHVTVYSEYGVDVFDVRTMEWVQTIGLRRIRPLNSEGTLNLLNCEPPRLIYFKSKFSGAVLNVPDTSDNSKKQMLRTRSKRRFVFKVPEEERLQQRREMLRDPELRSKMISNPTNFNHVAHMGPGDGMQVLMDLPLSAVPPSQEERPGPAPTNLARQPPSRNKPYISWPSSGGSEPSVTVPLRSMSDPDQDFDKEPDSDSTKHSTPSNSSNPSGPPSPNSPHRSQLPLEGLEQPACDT
Sequence of D(1A) dopamine receptor (Homo sapiens) (P21728 whole entry): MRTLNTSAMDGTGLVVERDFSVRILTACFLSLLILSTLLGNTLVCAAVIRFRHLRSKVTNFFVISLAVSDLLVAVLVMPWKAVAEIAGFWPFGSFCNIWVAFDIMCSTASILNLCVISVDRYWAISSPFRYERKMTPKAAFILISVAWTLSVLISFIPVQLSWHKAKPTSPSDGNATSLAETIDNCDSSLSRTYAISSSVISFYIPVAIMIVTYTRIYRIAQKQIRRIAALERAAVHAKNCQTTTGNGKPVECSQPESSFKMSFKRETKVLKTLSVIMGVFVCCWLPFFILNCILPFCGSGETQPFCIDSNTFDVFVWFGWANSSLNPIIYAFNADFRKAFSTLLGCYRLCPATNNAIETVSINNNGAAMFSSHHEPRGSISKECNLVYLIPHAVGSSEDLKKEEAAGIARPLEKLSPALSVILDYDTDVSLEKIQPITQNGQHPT
Sequence of Calcium/calmodulin-dependent protein kinase type II subunit beta (Homo sapiens) (Q13554 whole entry): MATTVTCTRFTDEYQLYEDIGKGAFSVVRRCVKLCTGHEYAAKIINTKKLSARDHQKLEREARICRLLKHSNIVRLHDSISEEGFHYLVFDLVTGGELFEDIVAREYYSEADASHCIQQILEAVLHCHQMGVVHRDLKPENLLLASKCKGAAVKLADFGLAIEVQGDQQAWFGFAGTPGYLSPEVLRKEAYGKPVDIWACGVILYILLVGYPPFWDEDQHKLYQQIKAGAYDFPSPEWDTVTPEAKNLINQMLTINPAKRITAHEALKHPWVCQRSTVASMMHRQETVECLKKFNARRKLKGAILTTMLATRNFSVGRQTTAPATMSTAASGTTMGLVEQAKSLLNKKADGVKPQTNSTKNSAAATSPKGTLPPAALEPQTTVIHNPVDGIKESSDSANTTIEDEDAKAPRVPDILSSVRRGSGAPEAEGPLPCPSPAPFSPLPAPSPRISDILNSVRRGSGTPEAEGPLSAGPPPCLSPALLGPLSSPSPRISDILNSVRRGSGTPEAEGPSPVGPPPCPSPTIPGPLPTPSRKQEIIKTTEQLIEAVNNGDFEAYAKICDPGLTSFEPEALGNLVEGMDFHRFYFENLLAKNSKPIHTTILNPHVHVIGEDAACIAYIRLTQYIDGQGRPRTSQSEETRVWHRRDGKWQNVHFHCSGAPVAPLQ
Sequence of Tyrosine-protein kinase Yes (Homo sapiens) (P07947 2-543 limits assumed): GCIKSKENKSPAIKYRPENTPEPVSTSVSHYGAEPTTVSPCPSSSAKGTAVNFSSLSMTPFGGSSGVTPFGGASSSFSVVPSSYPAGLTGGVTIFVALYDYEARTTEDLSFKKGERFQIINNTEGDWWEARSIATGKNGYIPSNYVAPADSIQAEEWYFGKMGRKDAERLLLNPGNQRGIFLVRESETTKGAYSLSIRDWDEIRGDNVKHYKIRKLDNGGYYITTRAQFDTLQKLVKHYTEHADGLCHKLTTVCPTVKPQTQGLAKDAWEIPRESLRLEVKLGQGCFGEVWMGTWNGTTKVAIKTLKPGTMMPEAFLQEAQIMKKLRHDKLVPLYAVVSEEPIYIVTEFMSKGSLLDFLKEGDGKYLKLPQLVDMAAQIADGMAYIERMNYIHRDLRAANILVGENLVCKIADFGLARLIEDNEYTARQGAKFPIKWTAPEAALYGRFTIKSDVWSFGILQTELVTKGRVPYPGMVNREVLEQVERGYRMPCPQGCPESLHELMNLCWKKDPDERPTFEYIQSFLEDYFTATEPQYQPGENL

`CCc1ccccc1C(=O)Nc1n[nH]c2c(C)c(F)c(C3C(C#N)=C(C)N(C)C(C)=C3C#N)cc12` [BAY-3827] was tested, and the “Cell Proliferation IC50” value (OCI-Ly7) was 12.2 µM, the IC50 [1] was 0.007 µM (active) and the % residual kinase activity [2] was 103%. The % residual kinase activity [3] was 78%, the % residual kinase activity [4] was 58% and the inhibition [5] was 67.4%. For the same compound, the % residual kinase activity [6] was 91%, the % residual kinase activity [7] was 90% and the % residual kinase activity [8] was 88%. The % residual kinase activity [9] was 101%, the “Cell Proliferation IC50” value (DU-145) was over 10 µM and the % residual kinase activity [10] was 100%. For the same compound, the % residual kinase activity [11] was 100%, the “Cell Proliferation IC50” value (A-375) was 22.8 µM and the % residual kinase activity [12] was 121%. For the same compound, the % residual kinase activity [13] was 99%, the % residual kinase activity [14] was 95% and the % residual kinase activity [15] was 109%. It also gave a % residual kinase activity [16] of 104%, a % residual kinase activity [17] of 99% and a % residual kinase activity [18] of 80%.
